# Experimental data: patent US20060173080A1, “Methods of modulating TNF using bupropion” (The Regents of the University of California, priority 2002, published 2006)
# Entries after “also recorded” stand apart in the source; their conditions may differ. Counter-ions that a name gives are not always drawn.
# Columns and labels:
# IL-10 = assay: Serum IL-10 by ELISA in LPS-challenged mice; type: in vivo, BALB/c mice; conditions: bupropion 100 mg/kg i.p. 1 h before 600 μg LPS i.p., serum 90 min after LPS, hydrochloride
# Description: To study the immunomodulatory effects of bupropion we used a mouse model in which TNF production is induced by stimulation with lipopolysaccharide (LPS) (Bozza et al, The PACAP-type I receptor agonist maxadilan from sand fly saliva protects mice against lethal endotoxemia by a mechanism partially dependent on IL-10, Eur. J. Immunol. 28, 3120-3127, 1998). BALB/c mice were injected intraperitoneally (i.p.) with bupropion or placebo 1 h prior to i.p. injection of LPS (600 ug/mouse).
# Male, 6 weeks old BALB/c mice were used in LPS-induced shock experiments. […]
# TNF, IL-1beta, IFN-gamma and IL-10 concentrations in serum samples or in supernatants from macrophage cultures were determined by enzyme-linked immunosorbent assay (ELISA) using antibody pairs and recombinant cytokines from R&D systems (Minneapolis, Minn., USA), according to the manufacturer's instructions. After incubation with streptoavidin-peroxidase conjugate (Sigma), the reaction was developed using 3,3′, 5,5′-tetramethylbenzidine (TMB) peroxidase substrate and read at 450 nm. The serum concentration of nitrite (NO2−) was determined by the Griess reaction, as an indicator of nitric oxide production (Green et al., Analysis of nitrate nitrite and [^15N] nitrite in biological fluids. Anal. Biochem 126, 131-138, 1982). […] The absorbance of the reaction product at 540 nm was measured using an ELISA reader. […]
# major depression = assay: Course of major depression in the case patients on bupropion; type: in vivo, human; conditions: case patients on bupropion 150 mg BID or TID; hydrochloride
# Description: After careful review of treatment options, they were started on bupropion (fluoxetine was stopped) with up-titration to 150 mg twice a day. Their abdominal complaints eased over the next months, and the major depression remitted. The baseline dysthymia remained. To better treat the dysthymia, bupropion was raised to 150 mg three times daily with a further lowering of their CDAI. The mesalamine was tapered off. Their CDAI is currently approximately zero. They have one well-formed bowel movement daily and has been without abdominal symptoms or encopresis for 19 months now. They have had no CD flares since starting bupropion. Twice in the last year, they stopped bupropion on their own accord because they felt completely well and felt they didn't need bupropion anymore. […] A person with NYSHA Class I CHF who started on bupropion for major depression. Their TNF before bupropion was 347 pg/ml and 5 pg/ml after two months on bupropion 150 mg twice a day (BID). […] In addition, a person with a history of two myocardial infarctions and NYSHA Class II CHF, who started on bupropion for major depression and desire to stop a 1.5 container/day chewing tobacco habit. Their TNF before starting bupropion was 433 pg/ml, and […] and then four weeks on bupropion 150 mg three times a day (TID). They subsequently stopped using tobacco and their depression is in remission.
# TNF = conditions: Altschuler and Kast 2003; cited from earlier work
# CD patients = assay: Case reports of Crohn's disease patients on bupropion (CDAI, symptoms, flares); type: in vivo, human
# Source text: Also, multiple toxicity issues are associated with taking medicines such as azathioprine, methotrexate, and steroids over time (Sartor R B. New therapeutic approaches to Crohn;s disease. N Engl J Med 2000;342:1664-1666). In CD, TNF is increased, and TNF is thought to play a central role in CD pathogenesis (Papadakis K A, Targan S R. Role of cytokines in the pathogenesis of inflammatory bowel disease. Annu Rev Med 2000;51:289-298). Monoaminergic and dopaminergic treatments can lower levels of TNF-alpha via increased intracellular adenosine 3′,5′-cyclic monophosphate (cAMP).
# person one presented in May of 1999 for treatment of an episode of major depression, superimposed on a chronic mild depressed state (dysthymia). […] They were not usually pain-free during the week, though usually did have several pain-free hours in a given day. […] Inadvertent loss of stool several times a month required daily use of adult protective pads. They were taking fluoxetine 40 mg every day for depression, and mesalamine 500 mg twice a day. CDAI was 202.
# After careful review of treatment options, they were started on bupropion (fluoxetine was stopped) with up-titration to 150 mg twice a day. Their abdominal complaints eased over the next months, and the major depression remitted. The baseline dysthymia remained. To better treat the dysthymia, bupropion was raised to 150 mg three times daily with a further lowering of their CDAI. The mesalamine was tapered off. Their CDAI is currently approximately zero. They have one well-formed bowel movement daily and has been without abdominal symptoms or encopresis for 19 months now. They have had no CD flares since starting bupropion. Twice in the last year, they stopped bupropion on their own accord because they felt completely well and felt they didn't need bupropion anymore.
# The above-described response to bupropion was consistent with other responses in CD patients. For example, a person with a 20-year history of Crohn's enteritis with multiple surgeries, including 4 small bowel resections. […] The patient was taking fluoxetine to help with pain control. […] Even though they were not able to stop smoking, the patient felt better on bupropion so they decided to continue this medicine with their family doctor's consent. Currently, the patient is taking bupropion 150 mg three times daily. […] Under their doctor's supervision, they have recently tapered their azathioprine from 100 to 50 mg every day without any increase in CDAI.
compound,measurement,setting,value
"CC(NC(C)(C)C)C(=O)c1cccc(Cl)c1 (racemic) [bupropion, (.±.)-1-(3-chlorophenyl)-2-[(1,1-dimethylethyl)amino]-1-propanone hydrochloride]",serum IL-10 level compared with placebo,IL-10,significantly raised
same,serum IL-10 level compared with placebo,IL-10; listed as Bupropion,significantly increased
same,depression outcome,major depression,partially controlled; also recorded: in remission; also recorded: remitted
same,circulating TNF levels,TNF,lowers
same,CD flares since starting bupropion,"CD patients; case patients, hydrochloride",no CD flares; also recorded: no CD flares or associated surgeries
same,time without abdominal symptoms or encopresis,CD patients; person one on bupropion,19 months
same,CDAI,"CD patients; person one, colonic CD, bupropion 150 mg three times daily, CDAI 202 before bupropion",approximately zero
same,abdominal cramping and blood per rectum after restarting bupropion,"CD patients; person one, symptoms recurred on two self-chosen stops",remitted within weeks
same,CDAI,"CD patients; person, Crohn's enteritis, bupropion 150 mg three times daily, CDAI approximately 275 before",about 45
same,Crohn's symptoms,"CD patients; person, bupropion 150 mg three times daily",alleviated completely
same,side effects or toxicities,"CD patients; two CD cases, over 2 years",without significant side effects or toxicities
same,remission of CD,CD patients; two cases,near complete and long-lasting (over 2 years) remissions
